Measured values reported in patent US8574563B2 (Bristol-Myers Squibb Company, priority 2006, dated 2013).
pEC50: −log10 of the molar value.

Tested on: HCV 1b-377-neo replicon cells
Assay: HCV replicon assay, HCV 1b-377-neo replicon cells (1b FRET)
Format: cell-based, Hepatitis C virus genotype 1b
Details: HCV 1b-377-neo replicon cells; HCV 1b genotype; read-out: EC50 range against HCV 1b (Table 2, Range)
Procedure, shortened: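 FRET-based replicon assay in HCV 1b-377-neo cells, including a comparison line carrying the NS5A Y2065H mutation that confers resistance to a reference compound.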

Question: `C[C@@H](O)C(=O)N1CCC[C@H]1c1ncc(-c2ccc(-c3ccc(-c4cnc([C@@H]5CCCN5C(=O)[C@@H](C)O)[nH]4)cc3)cc2)[nH]1` [Example 15, (2R,2′R)-1,1′-(4,4′-biphesnyldiylbis(1H-imidazole-5,2-diyl(2S)-2,1-pyrrolidinediyl))bis(1-oxo-2-propanol)] was tested. Which pEC50 did it give?
Answer: 7.00 to 9.00

Question: How did the pEC50 turn out when `CC[C@H](NC(=O)OC)C(=O)N1CCC[C@H]1c1ncc(-c2ccc(-c3ccc(-c4cnc([C@@H]5CCCN5C(=O)[C@H](CC)NC(=O)OC)[nH]4)cc3)cc2)[nH]1` [Example M21, dimethyl (4,4′-biphenyldiylbis(1H-imidazole-5,2-diyl(2S)-2,1-pyrroldinediyl((2S)-1-oxo-1,2-butanediyl)))biscarbamate] was run?
Answer: 7.00 to 9.00

Question: `CCN(CC)[C@@H](C(=O)N1CCC[C@H]1c1ncc(-c2ccc(-c3ccc(-c4cnc([C@@H]5CCCN5C(=O)[C@@H](NC(=O)OC)C(C)C)[nH]4)cc3)cc2)[nH]1)C(C)(C)C` [Example M91x] was tested. Which pEC50 did it give?
Answer: 7.00 to 9.00

Question: How did the pEC50 turn out when `COC(=O)N[C@@H](C(=O)N1CCC[C@H]1c1ncc(-c2ccc(-c3ccc(-c4cnc([C@@H]5CCCN5C(=O)[C@@H]5C[C@@H]6C[C@@H]6N5)[nH]4)cc3)cc2)[nH]1)c1ccccc1` [Example 83, methyl ((1R)-2-((2)S-2-(5-(4′ (2-((2S)-1-((1S,3S,5S)-2-azabicyclo[3.1.0]hex-3-ylcarbonyl)-2-pyrrolidinyl)-1H-imidazol-5-yl)-4-biphenylyl)-1H-imidazol-2-yl)-1-pyrrolidinyl)-2-oxo-1-phenylethyl)carbamate] was run?
Answer: 9.00 to 12.00

Same assay, conditions: Hepatitis C virus, HCV 1b-377-neo replicon cells; HCV 1b genotype; read-out: EC50 range against HCV 1b (Table 2, Range)

Question: With `CCCN(CCC)[C@H](C)C(=O)N1CCC[C@H]1c1ncc(-c2ccc(-c3ccc(-c4cnc([C@@H]5CCCN5C(=O)[C@H](NC(=O)OC)c5ccccc5)[nH]4)cc3)cc2)[nH]1` [Example M64, methyl ((1R)-2-((2S)-2-(5-(4′-(2-((2S)-1-(N,N-dipropyl-D-alanyl)-2-pyrrolidinyl)-1H-imidazol-5-yl)-4-biphenylyl)-1H-imidazol-2-yl)-1-pyrrolidinyl)-2-oxo-1-phenylethyl)carbamate] as the compound, how does the pEC50 read?
Answer: 7.00 to 9.00

Question: How did the pEC50 turn out when `CCOC(=O)N[C@@H](C)C(=O)N1CCC[C@H]1c1ncc(-c2ccc(-c3ccc(-c4cnc([C@@H]5CCCN5C(=O)[C@@H](c5ccccc5)N(CC)CC)[nH]4)cc3)cc2)[nH]1` [Example M31, ethyl ((1S)-2-((2S)-2-(5-(4′-(2-((2S)-1-((2R)-2-(diethylamino)-2-phenylacetyl)-2-pyrrolidinyl)-1H-imidazol-5-yl)-4-biphenylyl)-1H-imidazol-2-yl)-1-pyrrolidinyl)-1-methyl-2-oxoethyl)carbamate] was run?
Answer: 7.00 to 9.00

Question: How did the pEC50 turn out when `CN(C)CC(=O)N[C@@H](C(=O)N1CCC[C@H]1c1ncc(-c2ccc(-c3ccc(-c4cnc([C@@H]5CCCN5C(=O)[C@H](NC(=O)CN(C)C)c5ccccc5)[nH]4)cc3)cc2)[nH]1)c1ccccc1` [Example 25-5, N,N′-(4,4′-biphenyldiylbis(1H-imidazole-5,2-diyl(2S)-2,1-pyrrolidinediyl((1R)-2-oxo-1-phenyl-2,1-ethanediyl)))bis(2-(dimethylamino)acetamide)] was run?
Answer: 9.00 to 12.00

Question: How did the pEC50 turn out when `CCN(CC)[C@@H](C(=O)N1CCC[C@H]1c1ncc(-c2ccc(-c3ccc(-c4cnc([C@@H]5CCCN5C(=O)[C@H](COC)NC(=O)OC)[nH]4)cc3)cc2)[nH]1)c1ccccc1` [Example M61, methyl ((1S)-2-((2S)-2-(5-(4′-(2-((2S)-1-((2R)-2-(diethylamino)-2-phenylacetyl)-2-pyrrolidinyl)-1H-imidazol-5-yl)-4-biphenylyl)-1H-imidazol-2-yl)-1-pyrrolidinyl)-1-(methoxymethyl)-2-oxoethyl)carbamate] was run?
Answer: 7.00 to 9.00

Question: How did the pEC50 turn out when `COC(=O)N[C@@H](C(=O)N1CCC[C@H]1c1ncc(-c2ccc(-c3ccc(-c4cnc([C@@H]5CCCN5C(=O)[C@@H]5C[C@@H](F)CN5C)[nH]4)cc3)cc2)[nH]1)c1ccccc1` [Example 70, methyl ((1R)-2-((2S)-2-(5-(4′-(2-((2S)-1-((4R)-4-fluoro-1-methyl-L-prolyl)-2-pyrrolidinyl)-1H-imidazol-5-yl)-4-biphenylyl)-1H-imidazol-2-yl)-1-pyrrolidinyl)-2-oxo-1-phenylethyl)carbamate] was run?
Answer: 7.00 to 9.00

Question: `COC(=O)N[C@@H](C(=O)N1CCC[C@H]1c1ncc(-c2ccc(-c3ccc(-c4[nH]c([C@@H]5CCCN5C(=O)[C@H](NC(=O)OC)c5ccccc5)nc4C(=O)OCc4ccccc4)cc3)cc2)[nH]1)c1ccccc1` [Example J21, benzyl 2-((2S)-1-((2R)-2-((methoxycarbonyl)amino)-2-phenylacetyl)-2-pyrrolidinyl)-5-(4′-(2-((2S)-1-((2R)-2-((methoxycarbonyl)amino)-2-phenylacetyl)-2-pyrrolidinyl)-1H-imidazol-5-yl)-4-biphenylyl)-1H-imidazole-4-carboxylate] was tested. Which pEC50 did it give?
Answer: 9.00 to 12.00

Question: `CN(C)[C@@H](C(=O)N1CCC[C@H]1c1ncc(-c2ccc(-c3ccc(-c4cnc([C@@H]5CCCN5C(=O)[C@H]5CC[C@@H](NC(=O)OC(C)(C)C)CC5)[nH]4)cc3)cc2)[nH]1)c1ccccc1` [Example 94-33, tert-butyl (cis-4-(((2S)-2-(5-(4′-(2-((2S)-1-((2R)-2-(dimethylamino)-2-phenylacetyl)-2-pyrrolidinyl)-1H-imidazol-5-yl)-4-biphenylyl)-1H-imidazol-2-yl)-1-pyrrolidinyl)carbonyl)cyclohexyl)carbamate] was tested. Which pEC50 did it give?
Answer: 7.00 to 9.00

Question: How did the pEC50 turn out when `O=C1C[C@@H](C(=O)N2CCC[C@H]2c2ncc(-c3ccc(-c4ccc(-c5cnc([C@@H]6CCCN6C(=O)[C@@H]6CC(=O)NC(=O)N6)[nH]5)cc4)cc3)[nH]2)NC(=O)N1` [cj-132, (6S,6′S)-6,6′-(4,4′-biphenyldiylbis(1H-imidazole-5,2-diyl(2S)-2,1-pyrrolidinediylcarbonyl))didihydro-2,4(1H,3H)-pyrimidinedione] was run?
Answer: 6.00 to 7.00

Question: How did the pEC50 turn out when `CNC(=O)N[C@@H](C(=O)N1CCC[C@H]1c1ncc(-c2ccc(-c3ccc(-c4cnc([C@@H]5CCCN5C(=O)[C@H](NC(=O)NC)c5ccccc5)[nH]4)cc3)cc2)[nH]1)c1ccccc1` [Example 24-4b, N′,N′′′-(4,4′-biphenyldiylbis(1H-imidazole-5,2-diyl(2S)-2,1-pyrrolidinediyl((1R)-2-oxo-1-phenyl-2,1-ethanediyl)))bis(1-methylurea)] was run?
Answer: 7.00 to 9.00

Question: How did the pEC50 turn out when `COC(=O)N[C@@H](C(=O)N1CCC[C@H]1c1ncc(-c2ccc(-c3ccc(-c4cnc([C@@H]5CCCN5C(=O)C(c5ccccc5C(F)(F)F)N(C)C)[nH]4)cc3)cc2)[nH]1)c1ccccc1` (stereo partly drawn) [Example 84-55, methyl ((1R)-2-((2S)-2-(5-(4′-(2-((2S)-1-((dimethylamino)(2-(trifluoromethyl)phenyl)acetyl)-2-pyrrolidinyl)-1H-imidazol-5-yl)-4-biphenylyl)-1H-imidazol-2-yl)-1-pyrrolidinyl)-2-oxo-1-phenylethyl)carbamate] was run?
Answer: 9.00 to 12.00

Question: How did the pEC50 turn out when `COC(=O)N[C@H](C(=O)N1CCC[C@H]1c1ncc(-c2ccc(-c3ccc(-c4nc([C@@H]5CCCN5C(=O)[C@@H](NC(=O)OC)C(C)C)[nH]c4C)cc3)cc2)[nH]1)C(C)C` [Example E5e, methyl ((1S)-1-(((2S)-2-(4-(4′-(2-((2S)-1-((2S)-2-((methoxycarbonyl)amino)-3-methylbutanoyl)-2-pyrrolidinyl)-1H-imidazol-4-yl)-4-biphenylyl)-5-methyl-1H-imidazol-2-yl)-1-pyrrolidinyl)carbonyl)-2-methylpropyl)carbamate] was run?
Answer: 9.00 to 12.00

Question: With `CCN(CC)[C@@H](C)C(=O)N1CCC[C@H]1c1ncc(-c2ccc(-c3ccc(-c4cnc([C@@H]5CCCN5C(=O)[C@@H](NC(=O)OC)C(C)C)[nH]4)cc3)cc2)[nH]1` [Example M69, methyl ((1S)-1-(((2S)-2-(5-(4′-(2-((2S)-1-(N,N-diethyl-L-alanyl)-2-pyrrolidinyl)-1H-imidazol-5-yl)-4-biphenylyl)-1H-imidazol-2-yl)-1-pyrrolidinyl)carbonyl)-2-methylpropyl)carbamate] as the compound, how does the pEC50 read?
Answer: 6.00 to 7.00

Question: With `CCN(CC)[C@@H](C(=O)N1CCC[C@H]1c1ncc(-c2ccc(-c3ccc(-c4cnc([C@@H]5CCCN5C(=O)[C@@H](c5ccccc5)N5CCOCC5)[nH]4)cc3)cc2)[nH]1)c1ccccc1` [Example M48, (1R)-N,N-diethyl-2-((2S)-2-(5-(4′-(2-((2S)-1-((2R)-2-(4-morpholinyl)-2-phenylacetyl)-2-pyrrolidinyl)-1H-imidazol-5-yl)-4-biphenylyl)-1H-imidazol-2-yl)-1-pyrrolidinyl)-2-oxo-1-phenylethanamine] as the compound, how does the pEC50 read?
Answer: 7.00 to 9.00

Question: How did the pEC50 turn out when `COC(=O)N[C@@H](C(=O)N1CCC[C@H]1c1ncc(-c2ccc(-c3ccc(-c4cnc([C@@H]5CCCN5C(=O)Cc5cccc(O)c5)[nH]4)cc3)cc2)[nH]1)c1ccccc1` [Example 84-14, methyl ((1R)-2-((2S)-2-(5-(4′-(2-((2S)-1-((3-hydroxyphenyl)acetyl)-2-pyrrolidinyl)-1H-imidazol-5-yl)-4-biphenylyl)-1H-imidazol-2-yl)-1-pyrrolidinyl)-2-oxo-1-phenylethyl)carbamate] was run?
Answer: 7.00 to 9.00

Question: `COC(=O)N[C@@H](C(=O)N1CCC[C@H]1c1ncc(-c2ccc(-c3ccc(-c4cnc([C@@H]5CCCN5C(=O)c5snnc5-c5ccccc5)[nH]4)cc3)cc2)[nH]1)c1ccccc1` [Example 84-10, methyl ((1R)-2-oxo-1-phenyl-2-((2S)-2-(5-(4′-(2-((2S)-1-((4-phenyl-1,2,3-thiadiazol-5-yl)carbonyl)-2-pyrrolidinyl)-1H-imidazol-5-yl)-4-biphenylyl)-1H-imidazol-2-yl)-1-pyrrolidinyl)ethyl)carbamate] was tested. Which pEC50 did it give?
Answer: 7.00 to 9.00

Question: With `COC(=O)N[C@@H](C(=O)N1CCC[C@H]1c1ncc(-c2ccc(-c3ccc(-c4nc([C@@H]5CCCN5C(=O)[C@H](NC(=O)OC)c5ccccc5)[nH]c4C)cc3)cc2)[nH]1)c1ccccc1` [Example E5c, methyl ((1R)-2-((2S)-2-(4-(4′-(2-((2S)-1-((2R)-2-((methoxycarbonyl)amino)-2-phenylacetyl)-2-pyrrolidinyl)-1H-imidazol-4-yl)-4-biphenylyl)-5-methyl-1H-imidazol-2-yl)-1-pyrrolidinyl)-2-oxo-1-phenylethyl)carbamate] as the compound, how does the pEC50 read?
Answer: 9.00 to 12.00
